The values that follow come from patent US9834548B2, “Pyridazine compounds as JAK inhibitors” (Portola Pharmaceuticals, Inc., priority 2014, dated 2017).

What all share (type): biochemical
The target of one test is JAK1 (Homo sapiens (Human), UniProt P23458). The test can be described thus: Purified kinase assay (Z'-LYTE), JAK1. The conditions noted are these: Table 1; read-out: JAK1 IC50. On the procedure:
(§1) JAK and TYK2 tyrosine phosphorylation activity is measured using the Z′-LYTE™ Technology developed by Invitrogen Corporation (Carlsbad, Calif.). For JAK1, JAK2 and JAK3 the Z′-LYTE™ Kinase Assay Kit-Tyr6 Peptide (part number PV4122) was used. For TYK2 the Z′-LYTE™ Kinase Assay Kit-Tyr6 Peptide (part number PV3192) was used. The Z′-LYTE™ biochemical assay employs a fluorescence resonance energy transfer (FRET) coupled-enzyme format and is based on the differential sensitivity of phosphorylated and non-phosphorylated peptides to proteolytic cleavage. The assay uses a synthetic peptide substrate that is labeled with a donor fluorophore (coumarin) and an acceptor fluorophore (fluorescein) that make up a FRET pair. In the primary reaction (the Kinase Reaction), the kinase transfers the γ-phosphate of ATP to a single tyrosine residue on the substrate, while the presence of a kinase inhibitor in the primary reaction suppresses phosphorylation. In the secondary reaction (the Development Reaction), a site-specific protease (the Development Reagent) is added. The development buffer quenches the Kinase Reaction, while the protease recognizes and cleaves non-phosphorylated Z′-LYTE™ peptide substrate. Cleavage disrupts FRET between the donor and acceptor fluorophores on the non-phosphorylated substrate, while uncleaved, phosphorylated substrate maintains FRET.
(§2) To test the ability of candidate molecules to inhibit JAK tyrosine phosphorylation activity, molecules are reconstituted in 100% DMSO and serially diluted 1:10 in polypropylene v-bottom microtiter plates. The candidate molecules are then diluted 1:25 into kinase buffer and 2.5 μl transferred into duplicate wells of a 384 well low volume black microtiter assay plate (Corning, USA). The final DMSO concentration in the assay is 1%. The kinase reaction contains 2.5 μl of a candidate molecule, 5 μl of catalytic domain recombinant Kinase enzyme+Tyr peptide substrate (Invitrogen, CA) and ATP (Invitrogen, CA). The kinase reaction is allowed to proceed for 1 hour at room temperature. The protease reaction is initiated by the addition of Development Reagent (Invitrogen, CA). After 1 hour incubation at room temperature the fluorescence is measured using a FlexStation plate reader (Molecular Devices, Sunnyvale, Calif.). The reader settings used are as follows: Fluorescence mode, endpoint, top read, excitation 400 nm, emission 445 nm and 520 nm, Auto Cutoff 435 nm and 515 nm, PMT sensitivity high, 6 reads per well Inhibition of JAK activity is calculated as the percent phosphorylation of substrate in the presence of inhibitor compared to the percent phosphorylation of substrate in the absence of inhibitor. IC50's were derived using Xlfit 4.3 (IDBS, UK), 4 parameter logistic model 205: Y=(A+((B−A)/(1+((C/x)^D)))).

A further test concerns the target JAK2 (Homo sapiens (Human), UniProt O60674). The test can be described thus: Purified kinase assay (Z'-LYTE), JAK2. The conditions noted are these: Table 1; read-out: JAK2 IC50. On the procedure: as §1, §2
A further test concerns the target JAK3 (Homo sapiens (Human), UniProt P52333). The test can be described thus: Purified kinase assay (Z'-LYTE), JAK3. The conditions noted are these: Table 1; read-out: JAK3 IC50. On the procedure:
as §1, §2

pIC50: −log10 of the molar value.

Sequence of JAK3 (P52333 822-1111): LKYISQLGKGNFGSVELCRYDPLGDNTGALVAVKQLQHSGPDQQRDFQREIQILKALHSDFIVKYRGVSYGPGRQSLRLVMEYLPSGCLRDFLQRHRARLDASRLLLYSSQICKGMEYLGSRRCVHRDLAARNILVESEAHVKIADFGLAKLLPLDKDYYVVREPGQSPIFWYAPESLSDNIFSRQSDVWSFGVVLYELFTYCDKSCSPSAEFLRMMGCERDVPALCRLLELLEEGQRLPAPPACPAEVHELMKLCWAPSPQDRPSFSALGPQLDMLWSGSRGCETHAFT
Sequence of JAK1 (P23458 875-1153): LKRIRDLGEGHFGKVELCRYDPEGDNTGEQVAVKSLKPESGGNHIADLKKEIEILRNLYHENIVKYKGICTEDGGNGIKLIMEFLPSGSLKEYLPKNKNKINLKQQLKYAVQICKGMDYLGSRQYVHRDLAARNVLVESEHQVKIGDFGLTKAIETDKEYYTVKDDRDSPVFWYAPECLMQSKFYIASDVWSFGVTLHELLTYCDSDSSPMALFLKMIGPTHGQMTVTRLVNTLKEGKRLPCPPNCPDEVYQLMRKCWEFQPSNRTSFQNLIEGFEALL
Sequence of JAK2 (O60674 849-1124): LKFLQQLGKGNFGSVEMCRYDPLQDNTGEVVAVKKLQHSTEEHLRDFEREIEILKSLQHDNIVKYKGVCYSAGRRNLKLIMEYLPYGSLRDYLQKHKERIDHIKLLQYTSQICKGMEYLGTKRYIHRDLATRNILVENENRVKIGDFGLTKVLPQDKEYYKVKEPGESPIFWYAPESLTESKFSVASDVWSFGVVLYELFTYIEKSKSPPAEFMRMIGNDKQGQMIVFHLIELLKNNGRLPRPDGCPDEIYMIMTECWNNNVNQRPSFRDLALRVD

`CC(=O)N1CCN(c2ccc(Nc3cc(NCc4ccccc4F)c(C(N)=O)nn3)nc2)CC1` [Compound 28]: the pIC50 (as a rule, the IC50 on a negative log10 scale, so that one unit is a factor of ten) at JAK1 was 6.00 to 7.00; on JAK2, 7.00 to 8.00; at JAK3, 8.00 to 9.00.

Regarding `CCC(=O)N1CCN(c2ccc(Nc3cc(NCc4cccc(F)c4)c(C(N)=O)nn3)cc2)CC1` [Compound 30], the negative-log IC50 (pIC50) on JAK1 was under 6.00; on JAK2, 6.00 to 7.00; on JAK3 it was 7.00 to 8.00.

Take `CCC(=O)N1CCN(c2ccc(Nc3cc(NCc4cc(F)cc(F)c4)c(C(N)=O)nn3)cc2)CC1` [Compound 31]: the negative logarithm of the IC50 (pIC50) on JAK1 is under 6.00; on JAK2, 6.00 to 7.00; on JAK3 it was 8.00 to 9.00.

On to `CCC(=O)N1CCN(c2ccc(Nc3cc(NCc4cc(F)ccc4F)c(C(N)=O)nn3)cc2)CC1` [Compound 32], for which the negative logarithm of the IC50 (pIC50) on JAK1 was under 6.00; on JAK2 it was 7.00 to 8.00; at JAK3, 8.00 to 9.00.

For the compound `CCC(=O)N1CCN(c2ccc(Nc3cc(NCc4cccc(F)c4F)c(C(N)=O)nn3)cc2)CC1` [Compound 34], the results for the negative logarithm of the IC50 (pIC50) on JAK1, on JAK2 and on JAK3 were under 6.00, 7.00 to 8.00 and 8.00 to 9.00, respectively.

Take `NC(=O)c1nnc(Nc2ccc(N3CCOCC3)cc2)cc1NCc1cccc(F)c1` [Compound 35]: the pIC50 on JAK1 was under 6.00; at JAK2, 6.00 to 7.00; at JAK3, 7.00 to 8.00.

With `NC(=O)c1nnc(Nc2ccc(N3CCOCC3)cc2)cc1NCc1cc(F)cc(F)c1` [Compound 36], the values for the pIC50 at JAK1, on JAK2 and on JAK3 were under 6.00, 6.00 to 7.00 and 7.00 to 8.00, respectively.

On to `NC(=O)c1nnc(Nc2ccc(N3CCOCC3)cc2)cc1NCc1cc(F)ccc1F` [Compound 37], for which the negative logarithm of the IC50 (pIC50) at JAK1 is under 6.00; at JAK2, 7.00 to 8.00; on JAK3, 7.00 to 8.00.

On to `NC(=O)c1nnc(Nc2ccc(N3CCOCC3)cc2)cc1NCc1cccc(F)c1F` [Compound 38], for which the pIC50 is under 6.00 at JAK1, 6.00 to 7.00 on JAK2 and 7.00 to 8.00 at JAK3.

For the compound `NC(=O)c1nnc(Nc2ccc(N3CCOCC3)cc2)cc1NCc1c(F)cccc1F` [Compound 39], the pIC50 at JAK1 was 6.00 to 7.00; at JAK2, 7.00 to 8.00; on JAK3, 8.00 to 9.00.

As to `Cc1cc(Nc2cc(NCc3cccc(F)c3F)c(C(N)=O)nn2)ccc1N1CCOCC1` [Compound 40], the pIC50 at JAK1 is under 6.00; at JAK2 it was under 6.00; at JAK3 it was 7.00 to 8.00.

For `NC(=O)c1nnc(Nc2cc(F)c(N3CCOCC3)c(F)c2)cc1NCc1cccc(F)c1F` [Compound 41], the negative logarithm of the IC50 (pIC50) on JAK1, at JAK2 and on JAK3 was under 6.00 in each case.

As for `NC(=O)c1nnc(Nc2ccc(N3CCOCC3)c(F)c2)cc1NCc1cccc(F)c1F` [Compound 43], the pIC50 at JAK1 was under 6.00; on JAK2, under 6.00; on JAK3, 7.00 to 8.00.

Take `CN(C(=O)C1CC1)c1ccc(Nc2cc(NCc3cccc(F)c3F)c(C(N)=O)nn2)cc1` [Compound 44]: the pIC50 is under 6.00 on JAK1, under 6.00 at JAK2 and 7.00 to 8.00 at JAK3.

Turning to `COC(=O)N(C)c1ccc(Nc2cc(NCc3cccc(F)c3F)c(C(N)=O)nn2)cc1` [Compound 45], the results for the pIC50 on JAK1, on JAK2 and at JAK3 were under 6.00, under 6.00 and 7.00 to 8.00, respectively.

Regarding `CC(=O)N1CCN(c2ccc(Nc3cc(NCc4cccc(Cl)c4)c(C(N)=O)nn3)cc2)CC1` [Compound 46], the results for the pIC50 at JAK1, on JAK2 and at JAK3 were 6.00 to 7.00, 6.00 to 7.00 and 7.00 to 8.00, respectively.

In the case of `CC(=O)N1CCN(c2ccc(Nc3cc(NCc4cccc(C)c4)c(C(N)=O)nn3)cc2)CC1` [Compound 47], the values for the pIC50 on JAK1, on JAK2 and on JAK3 were under 6.00, 6.00 to 7.00 and 7.00 to 8.00, respectively.

For the compound `NC(=O)c1nnc(Nc2cccc(CN3CCOCC3)c2)cc1NCc1cccc(F)c1` [Compound 48], the figures for the pIC50 on JAK1, at JAK2 and at JAK3 were under 6.00, 6.00 to 7.00 and 7.00 to 8.00, respectively.

For `CC(=O)N1CCN(c2ccc(Nc3cc(NCc4cccc(F)c4)c(C(N)=O)nn3)cn2)CC1` [Compound 49], the pIC50 on JAK1 is under 6.00; on JAK2, under 6.00; on JAK3, 6.00 to 7.00.

For `NC(=O)c1nnc(Nc2ccc(N3CCNCC3)nc2)cc1NCc1cccc(F)c1` [Compound 50], the pIC50 was under 6.00 on JAK1, under 6.00 at JAK2 and 6.00 to 7.00 on JAK3.

With `NC(=O)c1nnc(Nc2ccc(OCCN3CCCC3)cc2)cc1NCc1cccc(F)c1` [Compound 51], the values for the pIC50 on JAK1, at JAK2 and at JAK3 were under 6.00, 6.00 to 7.00 and 7.00 to 8.00, respectively.

On to `NC(=O)c1nnc(Nc2ccc(C(=O)N3CCCC3)cc2)cc1NCc1cccc(F)c1` [Compound 52], for which the pIC50 is under 6.00 at JAK1, 6.00 to 7.00 on JAK2 and 7.00 to 8.00 at JAK3.

Take `COc1cc(Nc2cc(NCc3cccc(F)c3)c(C(N)=O)nn2)ccc1C(=O)N1CCCC1` [Compound 53]: the pIC50 is under 6.00 at JAK1, 6.00 to 7.00 at JAK2 and 7.00 to 8.00 on JAK3.

With `Cc1cc(Nc2cc(NCc3cccc(F)c3)c(C(N)=O)nn2)ccc1N1CCOCC1` [Compound 54], the pIC50 on JAK1 was under 6.00; at JAK2, under 6.00; on JAK3, 7.00 to 8.00.

For `NC(=O)c1nnc(Nc2ccc(C(=O)N3CCCC3)c(Cl)c2)cc1NCc1cccc(F)c1` [Compound 55], the results for the negative logarithm of the IC50 (pIC50) at JAK1, at JAK2 and at JAK3 were under 6.00, 6.00 to 7.00 and 7.00 to 8.00, respectively.

On to `NC(=O)c1nnc(Nc2cccc(N3CCOCC3)n2)cc1NCc1cccc(F)c1` [Compound 62], for which the pIC50 at JAK1, at JAK2 and on JAK3 was under 6.00 each time.

With `CC(=O)N1CCN(c2ccc(Nc3cc(NCC4CCNCC4)c(C(N)=O)nn3)cc2)CC1` [Compound 63], the negative-log IC50 (pIC50) is under 6.00 at JAK1, under 6.00 on JAK2 and 6.00 to 7.00 at JAK3.

Take `NC(=O)c1nnc(Nc2ccc(N3CCOCC3)cn2)cc1NCc1cccc(F)c1` [Compound 64]: the figures for the negative logarithm of the IC50 (pIC50) on JAK1, on JAK2 and on JAK3 were under 6.00, 7.00 to 8.00 and 8.00 to 9.00, respectively.

As to `Cn1ccc(Nc2cc(NCc3cccc(F)c3)c(C(N)=O)nn2)n1` [Compound 67], the negative-log IC50 (pIC50) at JAK1 was under 6.00; at JAK2, 6.00 to 7.00; at JAK3, 7.00 to 8.00.

Consider `CC(=O)N1CCN(c2ccc(Nc3cc(NCc4cccc(-n5ccnc5)c4)c(C(N)=O)nn3)cc2)CC1` [Compound 68], for which the values for the negative logarithm of the IC50 (pIC50) on JAK1, at JAK2 and on JAK3 were under 6.00, under 6.00 and 7.00 to 8.00, respectively.

For `CC(=O)N1CCN(c2ccc(Nc3cc(NCc4cccc(-c5ccncc5)c4)c(C(N)=O)nn3)cc2)CC1` [Compound 69], the negative logarithm of the IC50 (pIC50) on JAK1 was under 6.00; on JAK2, under 6.00; at JAK3 it was 7.00 to 8.00.

With `CC(=O)N1CCN(c2ccc(Nc3cc(NCc4cccc(-c5cccnc5)c4)c(C(N)=O)nn3)cc2)CC1` [Compound 70], the pIC50 is under 6.00 on JAK1, 6.00 to 7.00 on JAK2 and 7.00 to 8.00 at JAK3.

Turning to `CC(=O)N1CCN(c2ccc(Nc3cc(NCc4cccc(-c5ccccn5)c4)c(C(N)=O)nn3)cc2)CC1` [Compound 71], the pIC50 on JAK1 is under 6.00; at JAK2, under 6.00; on JAK3, 6.00 to 7.00.

`CC(=O)N1CCN(c2ccc(Nc3cc(NCc4cccc(C#N)c4)c(C(N)=O)nn3)cc2)CC1` [Compound 72]: the pIC50 at JAK1 is under 6.00; at JAK2, 6.00 to 7.00; on JAK3, 7.00 to 8.00.

Turning to `NC(=O)c1nnc(Nc2ccc(C(=O)N3CCCC3)cn2)cc1NCc1cccc(F)c1` [Compound 73], the values for the negative-log IC50 (pIC50) at JAK1, at JAK2 and at JAK3 were 6.00 to 7.00, 7.00 to 8.00 and 8.00 to 9.00, respectively.

Regarding `CC(=O)N1CCN(c2ccc(Nc3cc(N[C@H](C)C(C)C)c(C(N)=O)nn3)cc2)CC1` [Compound 75], the negative logarithm of the IC50 (pIC50) at JAK1 is 6.00 to 7.00; on JAK2, 7.00 to 8.00; at JAK3 it was 7.00 to 8.00.

Consider `CC(=O)N1CCN(c2ccc(Nc3cc(NCc4ccc(Cl)s4)c(C(N)=O)nn3)cc2)CC1` [Compound 76], for which the pIC50 at JAK1 was under 6.00; on JAK2, under 6.00; at JAK3, 7.00 to 8.00.

In the case of `NC(=O)c1nnc(Nc2ncc(C(=O)N3CCOCC3)s2)cc1NCc1cccc(F)c1` [Compound 77], the figures for the negative logarithm of the IC50 (pIC50) on JAK1, at JAK2 and on JAK3 were under 6.00, under 6.00 and 7.00 to 8.00, respectively.
